Source: patent US6376427B1, “Herbicidal compositions” (Sumitomo Chemical Company, Limited, priority 1998, dated 2002)

How the values were obtained:
corn = assay: Test Example 2: safety to corn (phytotoxicity); format: in vivo; settings: dosage 40 g/ha; sprayed on 13-day corn; examined 5 days after application
Procedure: (§1) Plastic pots each having an area of 26.5×19 cm^2 and a depth of 7 cm were filled with upland soil, and then seeded with soybean, corn and giant foxtail. The corn was grown for 13 days, and the soybean and giant foxtail were grown for 22 days in a greenhouse. An emulsifiable concentrate compound A which had been obtained by well mixing 10 parts of compound A, 14 parts of polyoxyethylene styryl phenyl ether, 6 parts of calcium dodecylbenzenesulfonate, 35 parts of xylene, and 35 parts of cyclohexanone, an emulsifiable concentrate of flufenacet which had been obtained by well mixing 10 parts of flufenacet, 14 parts of polyoxyethylene styryl phenyl ether, 6 parts of calcium dodecylbenzenesulfonate, 35 parts of xylene, and 35 parts of cyclohexanone, and a mixture of the emulsifiable concentrate of compound A and the emulsifiable concentrate of flufenacet were independently diluted in their prescribed amounts with water. Each dilution was uniformly sprayed over the plants with a small sprayer. After the application, the plants were grown in the greenhouse for 5 days, and the herbicidal activity and safety to soybean and corn were then examined.

wheat = assay: Test Example 1: safety to wheat (phytotoxicity); format: in vivo, wheat (Triticum aestivum); settings: dosage 10 g/ha; sprayed on 14-day wheat; examined 5 days after application
Procedure: (§2) Plastic pots each having an area of 26.5×19cm^2 and a depth of 10 cm were filled with upland soil, and then seeded with wheat and giant foxtail. The wheat was grown for 14 days and t he giant foxtail was grown for 23 days in a greenhouse. An emulsifiable concentrate compound A which had been obtained by well mixing 10 parts of compound A, 14 parts of polyoxyethylene styryl phenyl ether, 6 parts of calcium dodecylbenzenesulfonate, 35 parts of xylene, and 35 parts of cyclohexanone, an emulsifiable concentrate of flufenacet which had been obtained by well mixing 10 parts of flufenacet, 14 parts of polyoxyethylene styryl phenyl ether, 6 parts of calcium dodecylbenzenesulfonate, 35 parts of xylene, and 35 parts of cyclohexanone, and a mixture of the emulsifiable concentrate of compound A and the emulsifiable concentrate of flufenacet were independently diluted in their prescribed amounts with water. Each dilution was uniformly sprayed over the plants with a small sprayer. After the application, the plants were grown in the greenhouse for 5 days, and the herbicidal activity and safety to wheat were then examined.

giant foxtail [1] = assay: Test Example 2: post-emergence foliar spray, herbicidal activity; format: in vivo, giant foxtail (Setaria faberi); settings: sprayed on 22-day plants, examined 5 days after application, index 0 to 10
Procedure: as §1

giant foxtail [2] = assay: Test Example 1: post-emergence foliar spray, herbicidal activity; format: in vivo, giant foxtail (Setaria faberi); settings: sprayed on 23-day plants, examined 5 days after application, index 0 to 10
Procedure: as §2

soybean = assay: Test Example 2: safety to soybean (phytotoxicity); format: in vivo; settings: dosage 40 g/ha; sprayed on 22-day soybean; examined 5 days after application
Procedure: as §1

CCOC(=O)COc1cc(-n2ncc(C(F)(F)F)c(C)c2=O)c(F)cc1Cl [Compound A]
Phytotoxicity Corn (corn): No harm
Phytotoxicity Wheat (wheat): No harm
Herbicidal activity Giant foxtail (giant foxtail [1]; dosage 40 g/ha): 4
Herbicidal activity Giant foxtail (giant foxtail [2]; dosage 10 g/ha): 3
Phytotoxicity Soybean (soybean): No harm

CC(C)N(C(=O)COc1nnc(C(F)(F)F)s1)c1ccc(F)cc1 [Flufenacet, 4-fluoro-N-isopropyl-2-(5-trifluoromethyl-,1,3,4-thiadiazol-2-yloxy)acetanilide, reference compound]
Herbicidal activity Giant foxtail (giant foxtail [1]; dosage 400 g/ha): 2
Herbicidal activity Giant foxtail (giant foxtail [2]; dosage 240 g/ha): 2
